Reference: ChEMBL document CHEMBL1148033, “Four new C16 1,2-dioxene-polyketides from the sponge Plakortis aff. simplex” (J Nat Prod, 1993)

System: P388
Test: Cytotoxicity against mouse P388 cells
Format: functional, cell-based

CCC/C=C/C=C/CCC[C@]1(OC)C=C[C@@H](CC(=O)OC)OO1
IC50: < 0.1 µg/mL

CCCC1C=CC(CCC[C@]2(OC)C=C[C@@H](CC(=O)OC)OO2)OO1 (some centres not stated)
IC50: < 0.1 µg/mL
